pIC50: −log10 of the molar value.
target: T1, Lon protease homolog, mitochondrial (Homo sapiens, UniProt P36776); assay: Biological/Biochemical Evaluation
T1 sequence (P36776 whole entry): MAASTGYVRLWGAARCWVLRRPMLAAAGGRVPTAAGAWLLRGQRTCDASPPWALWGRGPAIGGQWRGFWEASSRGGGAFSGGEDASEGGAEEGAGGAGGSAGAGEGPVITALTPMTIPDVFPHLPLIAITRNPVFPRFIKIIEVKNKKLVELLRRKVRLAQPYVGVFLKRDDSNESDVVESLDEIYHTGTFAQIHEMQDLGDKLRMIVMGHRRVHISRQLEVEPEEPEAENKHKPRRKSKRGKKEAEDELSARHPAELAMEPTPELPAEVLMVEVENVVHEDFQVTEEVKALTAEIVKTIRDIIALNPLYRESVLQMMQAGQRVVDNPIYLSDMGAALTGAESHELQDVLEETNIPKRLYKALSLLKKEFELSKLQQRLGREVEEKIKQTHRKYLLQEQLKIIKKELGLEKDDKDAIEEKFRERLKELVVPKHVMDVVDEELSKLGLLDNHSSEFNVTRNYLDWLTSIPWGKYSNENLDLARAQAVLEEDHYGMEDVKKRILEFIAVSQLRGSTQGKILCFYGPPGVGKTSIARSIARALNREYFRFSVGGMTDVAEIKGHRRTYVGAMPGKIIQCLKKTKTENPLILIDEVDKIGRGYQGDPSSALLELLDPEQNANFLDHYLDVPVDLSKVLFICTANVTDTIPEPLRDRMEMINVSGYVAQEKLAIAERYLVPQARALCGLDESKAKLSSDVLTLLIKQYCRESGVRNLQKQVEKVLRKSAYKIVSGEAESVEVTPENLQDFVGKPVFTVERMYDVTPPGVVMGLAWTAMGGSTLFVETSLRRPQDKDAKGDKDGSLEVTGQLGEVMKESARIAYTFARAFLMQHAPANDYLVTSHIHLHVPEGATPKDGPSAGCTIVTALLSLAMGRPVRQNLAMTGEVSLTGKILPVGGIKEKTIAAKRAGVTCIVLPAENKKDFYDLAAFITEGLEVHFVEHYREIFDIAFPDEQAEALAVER
Procedure: In this Example, LONP1 (NM_004793.4) activity was measured by a FRET-based assay for protease activity using a fluorogenic peptide DabcylYRGIT(2Abu)SORQK(5-FAM) (Cambridge Research Biochemicals) as substrate. LONP1 activity is followed by an increase in fluorescence signal due to the degradation of the peptide. Inhibition of LONP1 protease activity by an inhibitor compound of the disclosure elicits a decrease in the fluorescent signal. The assay is performed in a 384-well plate (Greiner, cat. #781076) using the following reagents and conditions: substrate (3 μM) was incubated for 1 hour at 37° C. in the presence of LONP1 (15 nM as monomer), 25 mM Tris pH 8.0, 10 mM MgCl2, 0.03 mg/mL […], 0.5 mM DTT, 0.0003% Tween-20, 10 mM NaCl, 0.06 mM ATP and 0.5 mM EGTA in a 15 μL final volume. The LONP1-containing mix (10 μL) was incubated with the test compound for 15 min at 37° C. before adding the peptide-containing mix (5 μL). Solutions were dispensed using a small cassette-Multidrop Combi (Thermo Scientific). Fluorescence was measured using a PheraStar plate reader (BMG Labtech) FI-FRET EX 485 nm Em 520 nm.

SMILES	pIC50
COC[C@@H](NC(=O)c1cccc(C)n1)C(=O)N[C@@H](CCCc1ccccc1)B(O)O [US20250320234, Compound 10]	> 7.30
COC[C@@H](NC(=O)c1ccc(Cl)cc1)C(=O)N[C@@H](CCCc1ccccc1)B(O)O [US20250320234, Compound 51]	> 7.30
COC[C@@H](NC(=O)c1cnccn1)C(=O)N[C@@H](CCCc1ccc(OC)cc1)B(O)O [US20250320234, Compound 5]	> 7.30
COC[C@@H](NC(=O)c1cccc(Cl)c1)C(=O)N[C@@H](CCCc1ccccc1)B(O)O [US20250320234, Compound 54]	> 7.30
COC[C@@H](NC(=O)[C@@H]1CCC(=O)N1)C(=O)N[C@@H](CCCc1ccccc1)B(O)O [US20250320234, Compound 7]	> 7.30
COC[C@@H](NC(=O)c1cc(Cl)ccc1Cl)C(=O)N[C@@H](CCCc1ccccc1)B(O)O [US20250320234, Compound 56]	> 7.30
COC[C@@H](NC(=O)N1CCOCC1)C(=O)N[C@@H](CCCc1ccccc1)B(O)O [US20250320234, Compound 31]	> 7.30
COC[C@@H](NC(=O)c1cnccn1)C(=O)N[C@@](C)(CCCc1ccccc1)B(O)O [US20250320234, Compound 22]	< 5.30
O=C(N[C@H](CSc1ccccc1)C(=O)N[C@@H](CCCc1ccccc1)B(O)O)c1cnccn1 [US20250320234, Compound 34]	> 7.30
CN(C)S(=O)(=O)C[C@H](NC(=O)c1cnccn1)C(=O)N[C@@H](CCCc1ccccc1)B(O)O [US20250320234, Compound 36]	> 7.30
CO[C@@H](C)[C@@H](NC(=O)c1cnccn1)C(=O)N[C@@H](CCCc1ccccc1)B(O)O [US20250320234, Compound 6]	> 7.30
COC[C@@H](NC(=O)c1ccccn1)C(=O)N[C@@H](CCCc1ccccc1)B(O)O [US20250320234, Compound 9]	> 7.30
COC[C@@H](NC(=O)c1ccccc1Cl)C(=O)N[C@@H](CCCc1ccccc1)B(O)O [US20250320234, Compound 57]	> 7.30
O=C(N[C@H](COC1CC1)C(=O)N[C@@H](CCCc1ccccc1)B(O)O)c1cnccn1 [US20250320234, Compound 20]	> 7.30
O=C(N[C@H](COCc1ccccc1)C(=O)N[C@@H](CCCc1ccccc1)B(O)O)c1cnccn1 [US20250320234, Compound 11]	> 7.30
COC[C@@H](NC(=O)c1cnccn1)C(=O)N[C@@H](CCOc1ccc(Cl)cc1F)B(O)O [US20250320234, Compound 24]	> 7.30
COC[C@@H](NC(=O)c1cnccn1)C(=O)N[C@@H](CCCc1ccc(Cl)cc1)B(O)O [US20250320234, Compound 12]	> 7.30
COC[C@@H](NC(=O)c1cnccn1)C(=O)N[C@@H](CCCc1ccc(F)cc1)B(O)O [US20250320234, Compound 32]	> 7.30

Now from value to compound:

pIC50	SMILES
> 7.30	COC[C@@H](NC(=O)c1cncc(C)c1)C(=O)N[C@@H](CCOc1ccccc1)B(O)O [US20250320234, Compound 44]
> 7.30	COC[C@@H](NC(=O)c1cnccn1)C(=O)N[C@@H](CCOc1ccc(Cl)cc1)B(O)O [US20250320234, Compound 21]
> 7.30	COC[C@@H](NC(=O)c1ccccn1)C(=O)N[C@@H](CCOc1ccccc1)B(O)O [US20250320234, Compound 43]
< 5.30	COC[C@@H](NC(=O)c1cnccn1)C(=O)N[C@H](CCOc1ccc(Cl)cc1C)B(O)O [US20250320234, Compound 28]
> 7.30	COC[C@@H](NC(=O)c1cnccn1)C(=O)N[C@@H](CCOc1ccc(F)cc1)B(O)O [US20250320234, Compound 23]
> 7.30	COC[C@@H](NC(=O)c1cnccn1)C(=O)N[C@@H](CCOc1ccccc1)B(O)O [US20250320234, Compound 14]
> 7.30	COC[C@@H](NC(=O)c1cncnc1)C(=O)N[C@@H](CCCc1ccccc1)B(O)O [US20250320234, Compound 52]
> 7.30	COC[C@@H](NC(=O)c1cccc(C)n1)C(=O)N[C@@H](CCOc1ccccc1)B(O)O [US20250320234, Compound 42]
> 7.30	COC[C@@H](NC(=O)c1cnccn1)C(=O)N[C@@H](CCOc1ccc(Cl)c(F)c1)B(O)O [US20250320234, Compound 25]
